Series [1] in a line: Amperometric determination of H2S release. The class given is physicochemical. As to conditions: assay buffer, absence or presence of L-cysteine. How it is done: FIG. 1: Curves describe the increase of H2S concentration, with respect to time, following the incubation of GYY 4137, the H2S-prodrug MT66 in the assay buffer, in the absence (white symbol) or in the presence of L-cysteine (black symbol) or glutathione (black triangles). H2S was recorded by amperometry; the vertical bars indicate the SEM.
Amperometric Determination of H2S: The characterization of the H2S-generating properties of the new compounds was carried out by amperometric approaches through an Apollo-4000 Free Radical Analyzer (WPI) detector and H2S-selective minielectrodes. The procedure has been recently reported by us.
The H2S-releasing properties were evaluated both in the absence or in the presence of an organic thiol such as L-cysteine.

In series [2] the test system is NMDAR. The series is described as follows: Displacement of specific [3H]MK-801 binding in rat cortex membranes. The protocol: [^3H]MK-801 Binding Assay. Crude synaptic membranes were prepared from the cerebral cortex of Sprague-Dawley rats. The pellets were stored at −80° C. for at least 24 h, and washed three more times with Tris-HEPES buffer (Tris 4.5 mM, HEPES 5 mM, pH 7.4) to remove the endogenous amino acids before the binding assay. In the binding assay, 50 μL of membrane preparation (40-50 μg protein), and 10 μL of compound were mixed at 25° C. in the presence of […] L-glutamate (10 μM) and 50 μL of glycine (10 μM). Then, 50 μl of [^3H]MK-801 (final concentration 3 nM) were added to the preparation. Tris-HEPES buffer was added to a final volume of 0.5 mL. Following incubation time of 2 h at 25° C., binding was terminated by filtration […]. Radioactivity was measured using a PerkinElmer liquid scintillation counter. Nonspecific binding was determined in the presence of unlabeled 100 μM MK-801. […] For compound activity determination, aliquots of membrane pellets were incubated with different ligand concentrations of MT66 and reference drug (10 nM-10 μM) in the absence of presence of 4 mM Cysteine for 30 min, and then incubated with 3 nM [^3H]MK-801 for 2 h at 25° C. Samples were then filtered, and the radioactivity was counted.
Displacement of specific [^3H]MK-801 binding in rat cortex membranes in the absence or presence of cysteine (Cys). MT66 was tested to assess its abilities to inhibit native-target activity (i.e. NMDAR). Binding to specific receptors (such as NMDAR) has been assessed using the assay based on the displacement of [^3H]MK-801 [19]. The evaluation has been performed in the presence and in absence of Cys.

Series [3] deals with Human neuronal-like cells. The series is described as follows: Neuroprotection in LPS/TNF-α challenged neuronal-like cells (MTS assay). The class given is cell-based. As to conditions: 10 μM pre-treatment 24 or 72 h, then 50 μg/ml LPS and 50 ng/ml TNF-α 16 h. How it is done:
FIG. 2: Neuroprotective effects. Human neuronal-like cells were treated with medium alone (CONTROL) or with the compounds (10 μM) for 24 h (light grey) or 72 h(dark grey); after drug removal, cells were incubated with 50 μg/ml LPS and 50 ng/ml TNF-α for an additional 16 h. At the end of treatment, cell proliferation was measured by MTS assay. The data are expressed as percentages relative to untreated cells (control), which were set at 100%, and represent the mean±SEM of three independent experiments, each performed in triplicate. Statistical significance was determined using a one-way ANOVA-Tukey HSD post hoc test: *P<0.05, ***P<0.001 vs. control; ##P<0.01, ###P<0.001 vs. cells treated with LPS-TNF-α.
Cell proliferation/viability assays: Following incubation time, cell viability was determined using the MTS assay according to the manufacturer's instruction. […] The absorbance of formazan at […] was measured in a colorimetric assay with an automated plate reader. The results were calculated by subtracting the mean background from the values obtained from each test condition, and are expressed as the percentage of the control (untreated cells).
Evaluation of neuroprotective effects. […] The effects of H2S prodrug under physiological conditions and under inflammatory stress exposure were assessed by measuring cellular viability.
Background: Tetrazolium dyes change colour on reduction, which living cells bring about.

The test system of series [4] is Human neuronal-like cells. The series is described as follows: ROS production in LPS/TNF-α challenged neuronal-like cells (DCFH2-DA). The format is cell-based. As to conditions: 10 μM pre-treatment 24 h, then LPS and TNF-α 16 h. The protocol: FIG. 3. Effects induced on ROS production. Human neuronal-like cells were treated with medium alone (CONTROL) or the compound (10 μM) for 24 h; after drug removal, cells were incubated with 50 μg/ml LPS and 50 ng/ml TNF-α for an additional 16 h. At the end of treatment, ROS production was measured using the fluorogenic probe DCFH2-DA. The data are expressed as percentages relative to untreated cells (control), which were set at 100%, and represent the mean±SEM of two independent experiments, each performed in triplicate. Statistical significance was determined using a one-way ANOVA-Tukey HSD post hoc test: ***P<0.001 vs. control; ###P<0.001 vs. cells treated with LPS-TNF-α.
Mitochondria ROS generation: The generation of ROS was assessed by the fluorogenic probe DCFH2-DA (Molecular Probes, Invitrogen) in Neuronal-like cells, differentiated from H9-derived NSCs.). […] This nonfluorescent molecule is readily converted to a green-fluorescent form […] when the acetate group is removed by intracellular esterases and an oxidation by ROS occurs within the cell. […] Fluorescence increase was estimated in a plate reader at 485 nm (excitation) and 520 nm (emission) (Wallac, Victor 2, 1420 multilabel counter, PerkinElmer). The fluorescence values were normalized between samples for cell number content and assessed by a crystal violet cell staining assay. […]

Series [5] deals with Aβ(1-40) self-induced aggregation. As to the kind of experiment: Thioflavin T fluorescence assay of Aβ aggregation. The class given is cell-based. As to conditions: 10 μM pre-treatment 24 h, ThT fluorescence. How it is done:
The Thioflavin T fluorescence assay. Thioflavin T (ThT) dye fluorescence was used to quantify the formation and inhibition of amyloid oligomers in the presence of anti-amyloidogenic compounds. The ThT stock solution was prepared by adding 8 mg ThT to 10 mL phosphate buffer (10 mM phosphate, 150 mM NaCl, pH 7.0) and filter through a 0.2 μm syringe filter. This stock solution should be stored in the dark and is stable for about one week. On the day of the analysis, the stock solution was diluted into PBS to obtain the concentration of 10 μM. The Aβ1-42 oligomers were prepared by diluting the stock solution in PBS and the dilution was shaking for 48 hours at 37° C. The cells were seeded in black 96-multiwell plate (3000 c/w) and treated with the compound MT66 and reference drug (10 μM) for 24 h. Following incubation time, cells were washed and incubated with Aβ1-42 oligomers for 24 h. After this time, 200 μl of ThT 10 μM were added to each well in the dark. The ThT fluorescence intensity of each sample was recorded every 5 min using a spectrophotometer by excitation at 355 nm and emission 535 nm.
Inhibition of Aβ(1-40) self-induced aggregation. The new compound was also tested to evaluate their ability to inhibit the Aβ(1-40) self-induced aggregation.

In series [6] the test system is U87MG cells. The series is described as follows: Western blot of autophagy markers in U87MG cells. The format is cell-based, human. As to conditions: 10 μM; for LC3II expression (LC3II/LC3I ratio) / p62 expression / p-mTOR expression (p-mTOR/mTOR ratio): 4 h; for LC3II expression: 24 h. The protocol:
FIG. 6. Western blot quantification of LC3II/LC3I ratio, p62, mTOR and Akt as hallmarks of the degree of ATG activation. […] (D) Western blot quantification of pAkt/Akt ratio in U87MG cells. Results represent mean±SEM of three different gels. *P<0.05, **P<0.01, ***P<0.001 versus vehicle treated cells (Control).
Western blot analysis. The human U-87MG cells were seeded in 6-well plates in a final volume of 2 ml/well at a density of 1×10^6/well and grown to 80% of confluence with standard medium (DMEM-High Glucose). Cells were treated with vehicle (0.1% DMSO) or test compounds (i.e. 10 μM Memantine or Memit and (1 μM) Rapamycin and incubated at 37° C. for 4 and 24 h. Treated cells were washed twice with PBS and lysed in Tris-buffered saline buffer-1% Triton-X100; NaCl 150 mM; Tris-HCl 20 mM; EDTA 1 mM; EGTA 1 mM; NaF 20 mM; Na4P2O7 25 mM; Na3VO4 1 mM; PMSF 1 mM; 8 μ/ml protein cocktail inhibitors (Sigma-Aldrich, Milan, Italy). Proteins (30-40 μg) were separated on Criterion TGX™ gel (4-20%) and transferred on Immuno-PVDF membrane (Bio-Rad, Milan, Italy) for 1 h. Blots were incubated for 12 h with diluted primary antibody [1:1000, LC3A/B; p62; mTOR, p-mTOR; Akt, p-Akt(Ser 473); β-actin, Cell Signaling] in 5% w/v BSA, 1× TBS and 0.1% Tween 20 at 4° C. under gentle shaking. Then, blots were washed three times for 10 min with 1× TBS, 0.1% Tween 20 and incubated for 1 h with secondary antibody (peroxidase-coupled anti rabbit in 1× TBS, 0.1% Tween 20). […] Band densitometric analysis was performed using Image Lab Software (Bio-Rad, Milan, Italy).
Evaluation of proautophagic activity: Expression of protein LC3-II, p62, and m-TOR, indicators of autophagy, were detected by western blotting, using Rapamycin as a positive control. In U87MG cell lines.

The subject of series [7] is Rat microglia cells. As to the kind of experiment: Microglia protection from Aβ(1-42) induced injury (MTS assay). The class given is cell-based. As to conditions: 10 μM pre-treatment 24 h, then Aβ1-42 24 h. How it is done: FIG. 7. Rat microglia cells were pre-treated with the compounds (10 μM) for 24 h. After washing, the cells were incubated with Aβ1-42 for 24 h. At the end of treatments, cell proliferation was measured by MTS assay. The data are expressed as percentages relative to untreated cells (control), which were set at 100%, and represent the mean±SEM of three independent experiments, each performed in triplicate. Statistical significance was determined using a one-way ANOVA followed by a Bonferroni post-test: *p<0.05 vs control; #p<0.05 vs cells treated with Aβ1-42.
Cell proliferation/viability assays on rat microglia cells. Rat microglia cells were isolated from mixed cell culture obtained from Sprague-Dawley rat cortex, by gentle physical shaking, as described. After isolation, cells were seeded into 96 well-plated with fresh culture media and pretreated with MT66 or native drug (10 μM) for 24 h; before washing and incubation with Aβ1-42 for 24 h. Following incubation time, cell viability was determined using the MTS assay. The absorbance of formazan was measured at […]. The results were calculated by subtracting the mean background from the values obtained from each test condition and were expressed as the percentage of the control (untreated cells).
Microglia protection from Aβ(1-42) induced injury. Microglia, together with astrocytes, forms the main active immune defense of the CNS. […]

The mark [8] stands for this setting: presence of 4 mM cysteine, 30 min preincubation, read-out: Ki, nM (+Cys 4 mM, 30 min).

SMILES strings stand for the structures. Read-outs that look alike come from different tables or passages of the source. Marks after values point to notes of the source that are not given here.

Usually Ki stands for a dissociation constant, usually derived from enzyme kinetics or from competition with a known ligand. Usually Kd stands for the constant that tells how readily two partners part at equilibrium.

For the molecule `C1COCCN1.COc1ccc(P(=S)(S)N2CCOCC2)cc1` (centres unmarked) [GYY4137, reference compound], the H2S-releasing properties entry in series [1] was “slow H2S-releasing”.

For `CC12CC3CC(C)(C1)CC(N=C=S)(C3)C2` [MT66], in series [2] (absence of cysteine, concentration not given), the “Percentage of inhibition of specific [3H]MK-801 binding (−Cys)” value came out at 28.0% ^b. Moreover, the inhibition constant (Ki) in series [2] (setting [8]) was determined as 458 ± 77.7 nM. Besides, the H2S-releasing properties result in series [1] is “slow and L-cysteine-dependent H2S-releasing mechanism”. Besides, the “cell proliferation/viability after inflammatory insult” value in series [3] was “exhibited neuroprotective effects during inflammation”. In addition, the “ROS accumulation under inflammatory conditions” value in series [4] is recorded as “almost completely counteracted inflammatory-mediated effects”. Moreover, the “Aβ(1-40) self-induced aggregation” value in series [5] is given as “induces a reduction”. In series [6], the “LC3II expression (LC3II/LC3I ratio)” value is listed as “significant up-regulation”, the p62 expression entry was “decreased expressions”, the “p-mTOR expression (p-mTOR/mTOR ratio)” value is recorded as “decreased expressions” and the LC3II expression entry is on record as “remained almost unchanged”. Besides, in series [7], the “cell proliferation after Aβ1-42 oligomers” value is “completely restore cell proliferation”.

As to `CC12CC3CC(C)(C1)CC(N)(C3)C2` [Memantine, reference compound], the Ki in series [2] (absence of cysteine, 3 nM [3H]MK-801, rat cortex membranes, read-out: Ki, nM (−Cys)) was found to be 955 ± 74.2 nM. Besides, the inhibition constant (Ki) in series [2] (setting [8]) was found to be 329 ± 10.9 nM. Besides, in series [6], the “LC3II expression (LC3II/LC3I ratio)” value is reported as “significant up-regulation”, the p62 expression result is recorded as “decreased expressions”, the “p-mTOR expression (p-mTOR/mTOR ratio)” value is reported as “decreased expressions” and the LC3II expression result is “remained almost unchanged”. Besides, the “cell proliferation after Aβ1-42 oligomers” value in series [7] is “completely restore cell proliferation”.

`CC12NC(Cc3ccccc31)c1ccccc12` (centres unmarked) [[^3H]MK-801]: the Kd in series [2] (rat cortex membranes, read-out: dissociation constant (Kd) of [3H]MK-801) came to 4 nM.

Values taken from patent US20210070730A1, “H2S-BASED THERAPEUTIC AGENTS FOR THE TREATMENT OF NEURODEGENERATIVE DISEASES” (INTERNATIONAL SOCIETY FOR DRUG DEVELOPMENT S.R.L., priority 2017, published 2021).
